What all share (type): cell-based
The subject of test [1] is Douglas Fir zygotic embryos. As to the kind of experiment: Zygotic embryo initiation test. As to the method:
(§1) Megagametophyte explants were isolated for zygotic initiation tests from loblolly pine summer cones when embryos were at approximately stage 2-4. Seeds were collected from four individual trees of diverse genotypes. Extracted seeds were soaked in running water for 10 minutes, agitated in 10% liquinox supplemented with 2 drops of Tween 20/L (polyoxyethylene-sorbitan monolaurate) for 10 minutes, and rinsed with water for 30 minutes. Seeds were sterilized in a laminar flow hood by agitating in 20% hydrogen peroxide for 10 minutes and rinsing with sterile deionized water. The seed coats, integuments and nucellus were removed to isolate the megagametophytes. Culturing was performed in 24-well culture plates with each well having an approximate volume of 3.0 ml. Two milliliters of media were added into each well.
Embryos of Douglas Fir were obtained, and treated as described in Example 1.
A further example is provided for Douglas Fir. Douglas Fir zygotic embryos were tested for improved initiation when exposed to cultures containing pyruvic acid according to the protocol described in Example 1. Control medium 121 (Table 1C) was supplemented with 60.7 mg/L pyruvic acid to create the test medium (Table 1C, medium 1625). After incubation for eight weeks in the dark, initiation was scored. For tissue exposed to pyruvic acid, mean initiation rates were approximately 35% compared to 32% for the untreated embryos.

Test [2] deals with loblolly pine somatic embryos. As to the kind of experiment: Single somatic embryo initiation test (colony diameter). To be noted: for Mean Colony Diameter: 0.1 mg/L added to medium 1253, measured at 4½ weeks. As to the method: (§2) For somatic initiation tests, embryos were selected from a liquid suspension culture supplemented with abscisic acid. (Table 1B, medium 16). Each replication consisted of ten adjacent wells on a multiwell plate, with a single stage 2, somatic embryo per well, providing two replications per multiwell plate. Four replications (for a total of 40 explants) were performed per treatment for each genotype. The plates were wrapped in Parafilme wrap to minimize evaporation and incubated at 22-24° C. in the dark for 4-6 weeks or until colony diameters were roughly ¾-1 cm. Typically, a single stage 2 embryo is approximately 0.1 mm in size. During this time period, the single embryo multiplies to form an embryogenic tissue mass of about 5-9 mm in diameter depending on the particular conifer, culture genotype, medium contents, and time. Changes in tissue diameters were used to assay the effects of vitamins or organic acid on early-stage embryo growth and multiplication. Colony diameters were measured using a dissecting scope ocular micrometer.
Osmolarity and pH of the culture media were monitored to ensure that these factors were similar throughout various conditions, and therefore, were not contributing to the observed differences. To analyze the results, the ANOVA statistical analysis was performed.
Single somatic embryo initiation tests were conducted to determine the effect of various vitamins on initiation. Embryos of loblolly pine were obtained and treated as described in Example 1. Isolated explants were incubated either in a control medium (Table 1A, medium 1253), or in the same medium supplemented with the K&M vitamin mixture (Table 1A, medium 1335). […] Evaluation of specific components of the K&M vitamin mixture lead to identification of the components responsible for the observed increase.
Single somatic embryo initiation tests were conducted to determine the effect of alpha-ketoglutaric acid on initiation in loblolly pine. Embryos of loblolly pine were obtained and treated as described in Example 1. The inventors note that a modification to the protocol detailed in Example 1 may be required due to the addition of an organic acid to the base medium. The addition of an acid, such as alpha-ketoglutaric acid, causes media pH to drop and therefore, all media supplemented with alpha-ketoglutaric acid were titrated to pH 5.7 before adding them to the cultures. Titration was performed with KOH, which increased potassium levels in the media by about 0.7 mM.
Single somatic embryo initiation tests were conducted according to the protocol described in Example 1. The inventors note that modification to the protocol detailed in Example 1 may be required due to the addition of an organic acid to the base medium. In culture medium containing 60.72 mg/L pyruvic acid (Table 1B, medium 1462) mean tissue diameter was 7.1 mm compared to a mean tissue diameter of 6.1 for embryos grown on the control medium 1253 indicating a positive correlation between embryo exposure to pyruvic acid and overall initiation. Iterations of this example in loblolly pine yielded similar percentage increases in initiation, e.g., a 7.2 mm mean tissue diameter for medium containing 0.52 mM pyruvic acid compared to 6.5 mm mean tissue diameter in the control medium. As shown herein, this effect is further enhanced by the combinations of multiple organic acids.

Test [3] deals with loblolly pine megagametophytes. As to the kind of experiment: Zygotic initiation test with megagametophyte explants (extrusion and initiation). To be noted: for early extrusion and embryo expansion: supplement present in the medium; for effect on extrusion and initiation efficiency: 0.1 mg/L alone (media 1357, 1359), compared with medium 1391. The method, then:
as §1
Zygotic and somatic initiation tests were conducted to determine the effect of alpha-ketoglutaric acid in combination with vitamins B12 and E on initiation. Explants of loblolly pine were obtained and treated as described in Example 1 with the following modifications. Each replication consisted of ten adjacent wells on a multiwell plate, with one megagametophyte per well. Ten replications, for a total of 100 seeds, were performed per treatment for each cone collection.
According to the protocol of Example 1, four loblolly pine cone collections of approximately 500 seeds per collection with embryos at stages 2-4 were selected. Seeds were sterilized and dissected. […] Average initiation across the cone collections was roughly 30% for embryos grown on the control medium and roughly 36% for embryos grown on the test medium.

The subject of test [4] is loblolly pine stage 2 somatic embryos. As to the kind of experiment: Somatic embryo capture test in multiplication medium (colony diameter). The method, then:
as §2
Tests were conducted to determine the effect on somatic embryo capture of a medium supplemented with individual organic acids, such as alpha-ketoglutaric acid. Embryos of loblolly pine were obtained and treated as described in Example 1. Individual stage 2 embryos were selected from liquid maintenance medium and placed in multiplication medium (Table 1B, medium 1250).
Embryos of loblolly pine were obtained and treated as described in Example 1. Individual stage 2 embryos were selected from liquid maintenance medium and placed in multiplication medium (Table 1B, medium 1250). Stage 2 embryos were likewise placed in medium 1250 supplemented with 60.7 mg/L pyruvic acid (Table 1C, medium 1635). All cultures were incubated in the dark at 24-26° C. for 4-5 weeks.
A representative example for somatic capture uses embryos of loblolly pine obtained and treated as described in Example 1. Individual stage 2 embryos were selected from liquid maintenance medium and placed in multiplication medium (Table 1B, medium 1250). Compared to this control, the addition of 0.1 mg/L vitamin B12 alone to the multiplication medium (Table 1B, medium 1250) increased mean colony diameter by approximately 5%. Likewise, the addition of 100 mg/L alpha-ketoglutaric acid alone to the […] (Table 1B, medium 1250) increased mean colony diameter by approximately 10%.
Individual stage 2 embryos were selected from liquid maintenance medium and placed in multiplication control medium (Table 1B, medium 1250), as well as medium 1638, which is supplemented with 0.1 mg/L vitamin B12, 0.1 mg/L vitamin E, 100 mg/L alpha-ketoglutaric acid and 60.7 mg/L pyruvic acid (Table 1C, medium 1638). […]

For test [5], the system named is Norway Spruce somatic embryos. As to the kind of experiment: Single somatic embryo initiation test (tissue diameter). Conditions: 60.7 mg/L (medium 1664); control medium 1662 gave 2.8 mm. The method, then: as §2
Tissue isolated and prepared according to Example 1 was incubated in a medium containing 0.1 mg/L of both vitamin B12 and E for 4-5 weeks in the dark at 24-26° C. (Table 1 D, medium 1665). Tissue cultured in medium 1665 achieved an average diameter of 3.1 mm compared to tissue cultured in the control medium, which achieved an average diameter of 2.8 mm. […]

Turning to `O=C(O)CCC(=O)C(=O)O` [alpha-ketoglutaric acid], the “levels of initiation vs control medium 121” value in test [1] (100 mg/L (medium 1624)) is on record as “higher levels of initiation”. The “levels of initiation higher than control as measured by mean colony diameter” value in test [2] (100 ppm (medium 1342) vs control medium 1253, titrated to pH 5.7) is recorded as 20%. In test [3], the “early extrusion and embryo expansion” value was “more robust”. Further, the “increase in mean colony diameter vs medium 1250” value in test [4] (100 mg/L alpha-ketoglutaric acid alone) is listed as “approximately 10%”. In test [4] (only additive to control medium 1250, between 100 and 200 mg/L), the “increase in mean colony diameter” value is reported as 5-6%.

In test [1] (20 mg/L (medium 1627), base medium 121 gave 32%), `Nc1ccc(C(=O)O)cc1` [p-aminobenzoic acid] had an initiation of 39%. Also, in test [2] (0.2 ppm (medium 1434) vs control medium 1253), the “increase in mean colony diameter as compared to the control” value was determined as 32%.

On to `CC(=O)C(=O)O` [pyruvic acid], for which, in test [1] (60.7 mg/L (medium 1625), eight weeks in the dark, untreated 32%), the mean initiation rates entry is recorded as “approximately 35%”. Moreover, the mean tissue diameter in test [2] (0.52 mM, iteration of the example, control medium gave 6.5 mm) is listed as 7.2 mm; in test [2] (60.72 mg/L (medium 1462), control medium 1253 gave 6.1) it was 7.1 mm. In addition, the average diameter result in test [4] (60.7 mg/L in medium 1250 (medium 1635), dark, 24-26° C., 4-5 weeks, control 3.3 mm) is recorded as “roughly 3.7 mm”. In test [5], this molecule gave a mean diameters of 3.6 mm.

As to vitamin B12 [reference compound], the “Mean Colony Diameter” value in test [2] amounted to 4.88 mm. Also, the “effect on extrusion and initiation efficiency” value in test [3] is reported as “some, but a lesser effect”. In test [4] (0.1 mg/L vitamin B12 alone), the “increase in mean colony diameter vs medium 1250” value is “approximately 5%”.

With vitamin E, the “Mean Colony Diameter” value in test [2] is 4.65 mm. Further, in test [3], the “effect on extrusion and initiation efficiency” value was “some, but a lesser effect”; the “early extrusion and embryo expansion” value is “more robust”.

Values taken from patent publication US20030153080A1, “Methods for improving conifer embryogenesis” (priority 2002, published 2003).
